Measured values taken from ChEMBL document CHEMBL5579889, “Structure-Based Design and Development of Phosphine Oxides as a Novel Chemotype for Antibiotics that Dysregulate Bacterial ClpP Proteases” (J Med Chem, 2024).
≈ marks a conversion by molar mass, not a printed value. Calls of active or inactive are those of the source. The calls are words filed in the database; no cut-off is given here. Bridge positions count the residues as written; N and C are the ends. Square brackets hold non-standard residues; d marks the D form. Peptide text beside a SMILES is read from it. * marks the point of attachment. Phe(3,5-F2) = N[C@@H](Cc1cc(F)cc(F)c1)C(=O)O; Pro(4R-Me) = C[C@H]1CN[C@H](C(=O)O)C1; aThr = C[C@H](O)[C@H](N)C(=O)O; Pip = O=C(O)[C@@H]1CCCCN1; X1 = CCC/C=C/C=C/C(=O)*

How the values were obtained:
[1] = biological target: T1, ATP-dependent Clp protease proteolytic subunit (Escherichia coli (strain K12), UniProt P0A6G7); assay: Activation of N-terminal His-tagged recombinant Escherichia coli ClpP expressed in Escherichia coli SG1146(DE3) assessed as degradation of casein-FITC preincubated for 10 mins followed by casein addition measured for over 100 mins by fluorescence based assay
T1 sequence (P0A6G7 whole entry): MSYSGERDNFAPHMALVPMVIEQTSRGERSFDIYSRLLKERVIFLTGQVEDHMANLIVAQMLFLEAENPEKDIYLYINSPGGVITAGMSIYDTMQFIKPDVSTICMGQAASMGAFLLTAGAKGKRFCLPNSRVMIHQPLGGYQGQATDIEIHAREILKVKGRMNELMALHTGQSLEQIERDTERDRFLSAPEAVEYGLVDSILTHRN

[2] = biological target: T2, ATP-dependent Clp protease proteolytic subunit (Neisseria gonorrhoeae, UniProt Q5F914); assay: Activation of N-terminal His-tagged recombinant Neisseria gonorrhoeae ClpP expressed in Escherichia coli SG1146(DE3) assessed as degradation of casein-FITC preincubated for 10 mins followed by casein addition measured for over 100 mins by fluorescence based assay
T2 sequence (Q5F914 whole entry): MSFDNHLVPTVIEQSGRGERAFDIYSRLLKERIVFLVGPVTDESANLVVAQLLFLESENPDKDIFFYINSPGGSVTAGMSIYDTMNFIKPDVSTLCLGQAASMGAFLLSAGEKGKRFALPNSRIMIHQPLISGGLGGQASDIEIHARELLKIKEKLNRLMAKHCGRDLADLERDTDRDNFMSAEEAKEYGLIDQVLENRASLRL

Neisseria meningitidis [3] = assay: Antibacterial activity against wild-type Neisseria meningitidis H44/76 measured after 16 to 18 hrs by OD based assay; assay type: functional; settings: time 16-18 hrs
[4] = biological target: T2, ATP-dependent Clp protease proteolytic subunit; assay: Binding affinity to His-tagged recombinant Neisseria gonorrhoeae ClpP extracted from Escherichia coli SG1146(DE3) using casein as substrate assessed as apparent dissociation constant incubated upto 120 mins by SDS-PAGE analysis; settings: read-out: Kd(app)
Neisseria meningitidis [5] = assay: Antibacterial activity against Neisseria meningitidis BZ169 measured after 16 to 18 hrs by OD based assay; assay type: functional; settings: time 16-18 hrs
Neisseria meningitidis [6] = assay: Antibacterial activity against Neisseria meningitidis SWZ107 measured after 16 to 18 hrs by OD based assay; assay type: functional; settings: time 16-18 hrs
Neisseria gonorrhoeae [7] = assay: Antibacterial activity against Neisseria gonorrhoeae WHO N measured after 16 to 18 hrs by OD based assay; assay type: functional; settings: time 16-18 hrs
Neisseria meningitidis [8] = assay: Antibacterial activity against Neisseria meningitidis EG329 measured after 16 to 18 hrs by OD based assay; assay type: functional; settings: time 16-18 hrs
Neisseria meningitidis [9] = assay: Antibacterial activity against Neisseria meningitidis NGF26 measured after 16 to 18 hrs by OD based assay; assay type: functional; settings: time 16-18 hrs
Neisseria meningitidis [10] = assay: Antibacterial activity against Neisseria meningitidis NG144/82 measured after 16 to 18 hrs by OD based assay; assay type: functional; settings: time 16-18 hrs
[11] = biological target: T3, ATP-dependent Clp protease proteolytic subunit (Staphylococcus aureus (strain NCTC 8325)) (UniProt Q2G036); assay: Activation of N-terminal His-tagged recombinant Staphylococcus aureus ClpP expressed in Escherichia coli SG1146(DE3) assessed as degradation of casein-FITC at 100 uM preincubated for 10 mins followed by casein addition measured for over 100 mins by fluorescence based assay; settings: time > 110.0 min
T3 sequence (whole entry): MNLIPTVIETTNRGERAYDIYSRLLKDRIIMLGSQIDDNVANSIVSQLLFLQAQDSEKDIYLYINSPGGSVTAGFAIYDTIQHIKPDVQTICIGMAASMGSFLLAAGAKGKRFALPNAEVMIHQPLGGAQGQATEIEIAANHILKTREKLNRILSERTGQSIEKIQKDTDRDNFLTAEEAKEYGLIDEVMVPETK

[12] = biological target: ATP-dependent Clp protease proteolytic subunit, mitochondrial (Homo sapiens) (UniProt Q16740); assay: Activation of N-terminal His-tagged recombinant human ClpP expressed in Escherichia coli SG1146(DE3) assessed as degradation of casein-FITC at 100 uM preincubated for 10 mins followed by casein addition measured for over 100 mins by fluorescence based assay; settings: time > 110.0 min
Chain of ATP-dependent Clp protease proteolytic subunit, mitochondrial (Homo sapiens) (Q16740 whole entry): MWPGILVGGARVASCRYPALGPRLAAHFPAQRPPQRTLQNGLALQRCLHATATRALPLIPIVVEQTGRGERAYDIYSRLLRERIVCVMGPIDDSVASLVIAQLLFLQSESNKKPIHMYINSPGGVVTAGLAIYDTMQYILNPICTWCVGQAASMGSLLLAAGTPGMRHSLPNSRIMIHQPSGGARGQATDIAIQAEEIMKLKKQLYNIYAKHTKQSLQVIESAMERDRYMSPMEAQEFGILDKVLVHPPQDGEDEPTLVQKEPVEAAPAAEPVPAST

Streptococcus pneumoniae = assay: Activation of recombinant Streptococcus pneumoniae ClpP extracted from Escherichia coli SG1146(DE3) assessed as degradation of casein-FITC at 100 uM preincubated for 10 mins followed by casein addition measured for over 100 mins by fluorescence based assay; settings: time > 110.0 min
Neisseria gonorrhoeae [13] = assay: Antibacterial activity against Neisseria gonorrhoeae FA19 measured after 16 to 18 hrs by OD based assay; assay type: functional; settings: time 16-18 hrs
Neisseria gonorrhoeae [14] = assay: Antibacterial activity against Neisseria gonorrhoeae WHO L measured after 16 to 18 hrs by OD based assay; assay type: functional; settings: time 16-18 hrs
Neisseria gonorrhoeae [15] = assay: Antibacterial activity against Neisseria gonorrhoeae WHO V measured after 16 to 18 hrs by OD based assay; assay type: functional; settings: time 16-18 hrs
Neisseria meningitidis [16] = assay: Antibacterial activity against Neisseria meningitidis BZ133 measured after 16 to 18 hrs by OD based assay; assay type: functional; settings: time 16-18 hrs
Neisseria gonorrhoeae [17] = assay: Antibacterial activity against Neisseria gonorrhoeae WHO M measured after 16 to 18 hrs by OD based assay; assay type: functional; settings: time 16-18 hrs
Neisseria meningitidis [18] = assay: Antibacterial activity against Neisseria meningitidis AK50 measured after 16 to 18 hrs by OD based assay; assay type: functional; settings: time 16-18 hrs
[19] = biological target: T1, ATP-dependent Clp protease proteolytic subunit; assay: Binding affinity to His-tagged recombinant Escherichia coli ClpP extracted from Escherichia coli SG1146(DE3) using casein as substrate assessed as apparent dissociation constant incubated upto 120 mins by SDS-PAGE analysis; settings: read-out: Kd(app)
Neisseria meningitidis [20] = assay: Antibacterial activity against Neisseria meningitidis NGPB24 measured after 16 to 18 hrs by OD based assay; assay type: functional; settings: time 16-18 hrs
[21] = Cytotoxicity against wild-type HEK293-T-REx cells assessed as cell viability upto 100 uM incubated for 3 days by AlamarBlue assay; assay type: toxicity, cell-based; settings: human, 72 h, time 3 day
Neisseria meningitidis [22] = assay: Antibacterial activity against Neisseria meningitidis H44/76 harboring deltaclpP measured after 16 to 18 hrs by OD based assay; assay type: functional; settings: time 16-18 hrs
Neisseria gonorrhoeae [23] = assay: Antibacterial activity against Neisseria gonorrhoeae WHO G measured after 16 to 18 hrs by OD based assay; assay type: functional; settings: time 16-18 hrs
Neisseria gonorrhoeae [24] = assay: Antibacterial activity against Neisseria gonorrhoeae WHO X measured after 16 to 18 hrs by OD based assay; assay type: functional; settings: time 16-18 hrs
Neisseria gonorrhoeae [25] = assay: Antibacterial activity against Neisseria gonorrhoeae WHO K measured after 16 to 18 hrs by OD based assay; assay type: functional; settings: time 16-18 hrs
Neisseria gonorrhoeae [26] = assay: Antibacterial activity against Neisseria gonorrhoeae MS11 measured after 16 to 18 hrs by OD based assay; assay type: functional; settings: time 16-18 hrs
Neisseria meningitidis [27] = assay: Antibacterial activity against Neisseria meningitidis 88/03415 measured after 16 to 18 hrs by OD based assay; assay type: functional; settings: time 16-18 hrs
Neisseria gonorrhoeae [28] = assay: Antibacterial activity against Neisseria gonorrhoeae WHO Z measured after 16 to 18 hrs by OD based assay; assay type: functional; settings: time 16-18 hrs
Neisseria gonorrhoeae [29] = assay: Antibacterial activity against Neisseria gonorrhoeae WHO Y measured after 16 to 18 hrs by OD based assay; assay type: functional; settings: time 16-18 hrs
Neisseria gonorrhoeae [30] = assay: Antibacterial activity against Neisseria gonorrhoeae WHO P measured after 16 to 18 hrs by OD based assay; assay type: functional; settings: time 16-18 hrs

CC(C)(C(=O)NCCSc1ccccc1C(F)(F)F)P(=O)(c1ccc(C(F)(F)F)cc1)c1ccc(C(F)(F)F)cc1
EC50 [1]: 4.51 µM | EC50 [2]: 3.28 µM

CC(C)(C(=O)NCCSc1ccccc1Cl)P(=O)(c1ccc(C(F)(F)F)cc1)c1ccc(C(F)(F)F)cc1
EC50 [1]: 4.77 µM | EC50 [2]: 1.58 µM

CC(C)(C(=O)NCCSc1ccccc1C(F)(F)F)P(=O)(c1ccc(C(F)(F)F)cn1)c1ccc(C(F)(F)F)cn1
MIC (Neisseria meningitidis [3]): 0.3 µM (≈ 0.189 µg/mL) | Kd [4]: 0.69 µM | MIC (Neisseria meningitidis [5]): 18.8 µM (≈ 11.8 µg/mL) | MIC (Neisseria meningitidis [6]): 123 µM (≈ 77.4 µg/mL) | MIC (Neisseria gonorrhoeae [7]): 1.6 µM (≈ 1.01 µg/mL) | MIC (Neisseria meningitidis [8]): 13.8 µM (≈ 8.69 µg/mL) | EC50 [1]: 0.2 µM | MIC (Neisseria meningitidis [9]): 18.8 µM (≈ 11.8 µg/mL) | MIC (Neisseria meningitidis [10]): 18.8 µM (≈ 11.8 µg/mL) | Activity [11]: inactive | Activity [12]: inactive | Activity (Streptococcus pneumoniae): inactive | MIC (Neisseria gonorrhoeae [13]): 1.6 µM (≈ 1.01 µg/mL) | MIC (Neisseria gonorrhoeae [14]): 1.6 µM (≈ 1.01 µg/mL) | MIC (Neisseria gonorrhoeae [15]): 3.1 µM (≈ 1.95 µg/mL) | MIC (Neisseria meningitidis [16]): 25 µM (≈ 15.7 µg/mL) | MIC (Neisseria gonorrhoeae [17]): 1.6 µM (≈ 1.01 µg/mL) | MIC (Neisseria meningitidis [18]): 50 µM (≈ 31.5 µg/mL) | Kd [19]: 0.27 µM | MIC (Neisseria meningitidis [20]): 25 µM (≈ 15.7 µg/mL) | Activity [21]: Non-Toxic | MIC (Neisseria meningitidis [22]): 3.1 µM (≈ 1.95 µg/mL) | MIC (Neisseria gonorrhoeae [23]): 1.6 µM (≈ 1.01 µg/mL) | MIC (Neisseria gonorrhoeae [24]): 1.6 µM (≈ 1.01 µg/mL) | MIC (Neisseria gonorrhoeae [25]): 1.6 µM (≈ 1.01 µg/mL) | MIC (Neisseria gonorrhoeae [26]): 1.6 µM (≈ 1.01 µg/mL) | MIC (Neisseria meningitidis [27]): 18.8 µM (≈ 11.8 µg/mL) | EC50 [2]: 0.16 µM | MIC (Neisseria gonorrhoeae [28]): 2.4 µM (≈ 1.51 µg/mL) | MIC (Neisseria gonorrhoeae [29]): 3.1 µM (≈ 1.95 µg/mL) | MIC (Neisseria gonorrhoeae [30]): 1.6 µM (≈ 1.01 µg/mL)

CC(C(=O)NCCSc1ccccc1C(F)(F)F)P(=O)(c1ccccn1)c1ccccn1 (stereo not drawn)
Activity [11]: inactive | Activity [12]: inactive | Activity (Streptococcus pneumoniae): inactive

CC(C)(C(=O)NCCSc1ccccc1C(F)(F)F)P(=O)(c1ccccn1)c1ccccn1
EC50 [1]: 2.3 µM | Activity [11]: inactive | Activity [12]: inactive | Activity (Streptococcus pneumoniae): inactive | EC50 [2]: 5.1 µM

CCC/C=C/C=C/C(=O)N[C@@H](Cc1cc(F)cc(F)c1)C(=O)N[C@@H]1C(=O)N2CCC[C@H]2C(=O)N2CCCC[C@H]2C(=O)N[C@@H](C)C(=O)N2C[C@H](C)C[C@H]2C(=O)O[C@H]1C (X1-[Phe(3,5-F2)][aThr]P[Pip]A[Pro(4R-Me)]; ester 2-C)
MIC (Neisseria meningitidis [3]): < 0.3 µM | MIC (Neisseria meningitidis [5]): 0.3 µM (≈ 0.239 µg/mL) | MIC (Neisseria meningitidis [6]): < 0.3 µM | MIC (Neisseria gonorrhoeae [7]): 0.3 µM (≈ 0.239 µg/mL) | MIC (Neisseria meningitidis [8]): < 0.3 µM | EC50 [1]: 4.69 µM | MIC (Neisseria meningitidis [9]): 2.4 µM (≈ 1.91 µg/mL) | MIC (Neisseria meningitidis [10]): 0.3 µM (≈ 0.239 µg/mL) | MIC (Neisseria gonorrhoeae [13]): 1.6 µM (≈ 1.28 µg/mL) | MIC (Neisseria gonorrhoeae [14]): 0.3 µM (≈ 0.239 µg/mL) | MIC (Neisseria gonorrhoeae [15]): 3.1 µM (≈ 2.47 µg/mL) | MIC (Neisseria meningitidis [16]): 0.3 µM (≈ 0.239 µg/mL) | MIC (Neisseria gonorrhoeae [17]): 0.3 µM (≈ 0.239 µg/mL) | MIC (Neisseria meningitidis [18]): 1.6 µM (≈ 1.28 µg/mL) | MIC (Neisseria meningitidis [20]): 0.3 µM (≈ 0.239 µg/mL) | MIC (Neisseria meningitidis [22]): > 25 µM | MIC (Neisseria gonorrhoeae [23]): 0.3 µM (≈ 0.239 µg/mL) | MIC (Neisseria gonorrhoeae [24]): 0.3 µM (≈ 0.239 µg/mL) | MIC (Neisseria gonorrhoeae [25]): 0.3 µM (≈ 0.239 µg/mL) | MIC (Neisseria gonorrhoeae [26]): 0.3 µM (≈ 0.239 µg/mL) | MIC (Neisseria meningitidis [27]): 0.3 µM (≈ 0.239 µg/mL) | EC50 [2]: 0.23 µM | MIC (Neisseria gonorrhoeae [28]): 0.3 µM (≈ 0.239 µg/mL) | MIC (Neisseria gonorrhoeae [29]): 0.3 µM (≈ 0.239 µg/mL) | MIC (Neisseria gonorrhoeae [30]): 4.7 µM (≈ 3.75 µg/mL)
